We go through three substances from article PMC11410929, “Biochemical and crystallographic studies of L,D-transpeptidase 2 from Mycobacterium tuberculosis with its natural monomer substrate” (Communications Biology, 2024).

This assay deals with LdtMt2^C354S. The assay is classed as biochemical, Mycobacterium tuberculosis.

As for “GlcNAc-Muramitol-L-Ala-D-iGluNH2-m-DAPNH2-D-Ala [Compound 2]”, the “Product formation with LdtMt2^C354S” value is given as “no product formation was observed”.

Consider “lactoyl-L-Ala-D-iGluNH2-m-DAPNH2-D-Ala [Compound 3]”, for which the “Product formation with LdtMt2^C354S” value is “no product formation was observed”.

Consider “GlcNAc-MurNAc-L-Ala-D-iGluNH2-m-DAPNH2-D-Ala [Compound 1]”, for which the “Product formation with LdtMt2^C354S” value was “no product formation was observed”.
